From publication PMC7370299, “Inhibition of Ovarian Cancer Cell Spheroid Formation by Synthetic Peptides Derived from Nectin-4” (International Journal of Molecular Sciences, 2020)

Experiments:
NIH:OVCAR5 cells [1] = settings: 150 µg/mL peptide N4-P10 or 2 µg/mL puromycin, 250 nM Cytotox Green, 72 h, quadruplicate
Description: As a positive control for cytotoxicity, 2 µg/mL puromycin was used.

NIH:OVCAR5 cells [2] = test: Real-time spheroid formation, round-bottom ultra-low attachment plates, IncuCyte Zoom time-lapse, CellProfiler area; type: cell-based, human; settings: for effect on spheroid formation (spheroid size, time-lapse): 96-well round-bottom ultra-low attachment plates, IncuCyte Zoom, first 24 h, DMSO control; for inhibition of spheroid formation at 18 µg/mL: peptide 18 µg/mL; for spheroid contraction / compact spheroid formation, average spheroid area over time: quadruplicate; for cell-cell adhesion at early time points of spheroid formation: before ~6 h, time-lapse imaging
Description: (§1) Confluent monolayers of ovarian cancer cell lines (NIH:OVCAR5, N4-KD-VB9, or CAOV3) were detached from the tissue culture flasks using 0.05% Trypsin (ThermoFisher Scientific, Waltham, MA, USA) and resuspended at a concentration of 1.0 × 10^5 cells/mL in complete media. Each well of a 96-well round-bottom ultra-low attachment plate (Corning, Corning NY, USA) was seeded with 50 ul of the resulting suspension. In most cases, the experiments were conducted with eight technical replicates at each condition. The plates were then placed in the gantry of the IncuCyte® Zoom (Sartorius, Ann Arbor, MI, USA) live cell analysis system and incubated at 37 °C in 5% CO2 for 24–72 h, as indicated. Photographs were taken at ~15 min increments for a total of no less than 48 h for the NIH:OVCAR5 cell lines or up to 72 h for the CAOV3 cell line. The initial photographs (t = 0) were taken 10–25 min after the cells were plated, at which time the cells had gravitated to the bottom of the well and were initiating the cell–cell attachments. The resulting footage was analyzed to determine the change in the area of the spheroid aggregates over time. The images were binarized to black and white, and the sum of the area of the small aggregates (black objects) in pixels was determined via the CellProfiler^TM workflow described below. Each image was normalized to the same dimensions, so that the areas could be compared.
Experiments were then repeated using round-bottom ultra-low attachment plates in which the cells were added to the wells containing the peptides at a final concentration of 150 µg/mL. The plates were placed in the IncuCyte® Zoom instrument for 24-48 h of live cell imaging, as described above. Experiments with the peptides selected for further study were performed in triplicate, with 8–16 technical replicates at each treatment condition.
NIH:OVCAR5 cells were added to wells containing from 9 to 150 µg/mL of peptide N4-P10 or peptide N4-P10S, or DMSO control, and then the formation of spheroids was monitored via the IncuCyte® Zoom instrument. The resulting footage was analyzed with the CellProfiler^TM pipeline described below.
A simple four-step CellProfiler™ (open source, Broad Institute, www.cellprofiler.org) pipeline was used to delineate the biologically relevant image contents and to quantify the area of spheroids over time. As part of the CellProfiler™ workflow, cellular edges were enhanced using the Sobel method, the images were converted to binary via Otsu method thresholding, and the area of occupied pixels as a function of overall image size was recorded. The resulting values were exported for analysis and visualization in the R statistical programming language. The values were averaged and the mean with the standard error of the mean (SEM) was determined and graphed. Experiments were routinely performed with eight replicates for each condition, and repeated a minimum of two times on separate days. Since many photographs were taken during the course of each experiment (approximately every 15 min) and the SEM was very small, it is difficult to see the small error bars in the graphs. For this reason, the values for each experimental SEM were included in the figure legends.

NIH:OVCAR5 cells [3] = test: Initial screening of Nectin-4 peptides for spheroid formation, flat-bottom ultra-low attachment plates, manual photographs; type: cell-based, human; settings: peptide 150 µg/mL, 96-well flat-bottom ultra-low attachment plates, photographed at 24 and 48 h, 8 technical replicates, data not shown
Description: Twenty-one peptides of 14 amino acids in length encompassing the extracellular domain of Nectin-4 (Figure 2 and Table 1) were synthesized as previously described. The peptides were initially screened at a concentration of 150 µg/mL in 96-well flat-bottom ultra-low attachment plates to identify the section(s) of Nectin-4 that are active in ovarian cancer cell aggregation and spheroid formation. NIH:OVCAR5 cells and peptides were seeded into the plates and manually photographed at 24 and 48 h time points. […] However, the cells treated with the other 18 peptides produced spheroids that appeared to be similar in size to the untreated control cells.
For the initial screening of the twenty-one Nectin-4 peptides, 50 ul of the peptides at 300 µg/mL (for a final working concentration of 150 µg/mL peptide per well) in complete media were added to 96-well flat-bottom ultra-low attachment plates (Corning, Corning, NY, USA). DMSO was used as a negative control. Fifty microliters of NIH:OVCAR5 cells at a concentration of 1.0 × 10^5 cells/mL in complete media were added to each well. The plates were then incubated at 37 °C in 5% CO2 for 48 h, with photographs taken manually at 24 and 48 h on a Nikon® TE200 microscope. A single screening experiment was conducted with 8 technical replicates at each condition to determine which peptides had the most significant effect on spheroid formation.

CAOV3 cells = test: Real-time spheroid formation, round-bottom ultra-low attachment plates, IncuCyte Zoom time-lapse, CellProfiler area; type: cell-based, human; settings: peptide 150 µg/mL; for effect on spheroid formation of CAOV3 cells: round-bottom ultra-low attachment plates, 72 h, quadruplicate, DMSO control
Description: as §1
A simple four-step CellProfiler™ (open source, Broad Institute, www.cellprofiler.org) pipeline was used to delineate the biologically relevant image contents and to quantify the area of spheroids over time. As part of the CellProfiler™ workflow, cellular edges were enhanced using the Sobel method, the images were converted to binary via Otsu method thresholding, and the area of occupied pixels as a function of overall image size was recorded. The resulting values were exported for analysis and visualization in the R statistical programming language. The values were averaged and the mean with the standard error of the mean (SEM) was determined and graphed. […]

recombinant Nectin-1 = settings: ovarian cancer cell adhesion to recombinant Nectin-1, short-term binding assay, previous study ref 15; cited from earlier work
Excerpt: In our previous study, peptides N4-P10 and N4-P22 both inhibited cell adhesion by approximately 50%; however, the inhibition of spheroid formation by these two peptides was more disparate, with peptide N4-P10 almost completely inhibiting spheroid formation. In contrast, ...

[4] = peptide 150 µg/mL, 24 h, versus DMSO control

Molecule	cytotoxic effect (cell death, integrated fluorescence intensity) (NIH:OVCAR5 cells [1])	effect on spheroid formation (spheroid size, time-lapse) (NIH:OVCAR5 cells [2]; peptide 150 µg/mL)	effect on formation of spheroids (initial screen) (NIH:OVCAR5 cells [3])	inhibition of spheroid formation at 18 µg/mL (NIH:OVCAR5 cells [2]; 24 h, versus DMSO control)	spheroid contraction / compact spheroid formation, average spheroid area over time (NIH:OVCAR5 cells [2]; [4])	cell-cell adhesion at early time points of spheroid formation (NIH:OVCAR5 cells [2]; peptide 150 µg/mL)	effect on spheroid formation of CAOV3 cells (CAOV3 cells)	inhibition of cell adhesion to Nectin-1 (recombinant Nectin-1)	also measured
COc1ccc(C[C@H](N)C(=O)N[C@H]2[C@@H](O)[C@H](n3cnc4c(N(C)C)ncnc43)O[C@@H]2CO)cc1 [puromycin, reference compound]	essentially all died within 24 h								
EVKGTTSSRSFKHS [N4-P14, Nectin-4 extracellular domain peptide, AA 186-199]		no effect on spheroid formation							
QARLRLRVLVPPLP [N4-P10, Nectin-4 extracellular domain peptide, AA 138-151]	negligible	most dramatic effect on spheroid formation	significantly impeded the formation of spheroids	marginal effect of inhibiting spheroid formation	did not form compact spheroids	appeared to inhibit cell–cell adhesion	inhibited the spheroid formation of CAOV3 cells	approximately 50%	inhibition of spheroid formation at 37.5 to 150 µg/mL (NIH:OVCAR5 cells [2]; peptide 37.5 to 150 µg/mL, 24 h): almost complete inhibition of spheroid formation; size / packing of CAOV3 multicellular aggregates (CAOV3 cells; after 72 h of incubation, CellProfiler area): not as tightly packed as the spheroids that were formed in the presence of peptide N4-P10S or the DMSO control
RPVQLALPRLVRPL [N4-P10S, scrambled version of peptide N4-P10 used as a control peptide, reference compound]				no effect compared to the DMSO control	visually and quantitatively similar to that of the untreated controls		formed aggregates over 24 h that contracted into more compact spheroids after 72 h		change in formation of spheroids at any concentration (NIH:OVCAR5 cells [2]; peptide 9-150 µg/mL, 24 h, versus DMSO control): no quantifiable change in the formation of spheroids compared with the control
SGKQVDLVSASV [N4-P27, Nectin-4 peptide, AA 339-350, adjacent to membrane]		significant impact on the formation of spheroids	significantly impeded the formation of spheroids					did not inhibit ovarian cancer cell adhesion to recombinant Nectin-1	inhibition of spheroid formation compared to the control (NIH:OVCAR5 cells [2]; peptide 150 µg/mL, spheroid area at 24 h): almost forty percent
WTRLDGPLPSGVRV [N4-P22, Nectin-4 extracellular domain peptide, AA 282-295]		more modest inhibition of spheroid formation	significantly impeded the formation of spheroids			appeared to inhibit cell–cell adhesion		approximately 50%	
